This is an account of results in US11311576B2, “Methods of use for CAR T cells” (Seattle Children's Hospital, priority 2018, dated 2022).

The test system of data set [1] is MDA-MB-231 tumors. Kind of data set: EC17/E2-CAR T-cell therapy in NSG mice bearing MDA-MB-231 tumors. To be noted: 10 million E2 CAR-T cells, EC17 500 nmol/kg days 2 and 10, versus no EC17. It is filed as in vivo. On the procedure:
MDA-MB-231 tumor cells were grown in folate-deficient RPMI 1640 with 5-10% FBS at 37° C. in a 5% CO2 humidified atmosphere. MDA-MB-231 tumor cells were inoculated subcutaneously at 2.5×10^6 cells per animal. Only […] mice were inoculated and the remaining 22 mice were kept tumor-free.
EGFRt-sorted anti-FITC E2 scFv-CAR T cells were frozen in a T-cell freezing medium. Vials of frozen CAR-T cells were immediately stored at −80° C. The CAR-T cells were quickly thawed at 37° C., washed twice with PBS, and used for animal injection at 10 million viable EGFRt+E2 CAR-T cells (CD4/CD8 at ˜1:1) per animal. […]
Whole blood cell analysis: Plasma was removed from predetermined volumes of whole EDTA treated blood and RBCs were lysed with RBC lysis solution. […] Determination of the concentration of CAR T cells in each blood sample was calculated according to Invitrogen's instructions. CAR T cells were identified as human CD3ε+ EGFRt+ events and easily distinguished and counted using the Kaluza™ flow cytometry software. The number of CAR T cells in the circulation of each infused mouse was then represented on the graphs as the total number of CAR T cells per 100 μL of whole blood analyzed. Statistical significance was determined by utilizing an unpaired, two-tailed, students t30 test with significance set at p<0.05. […]

For data set [2], the system named is MDA-MB-231 tumors. Briefly: Dietary folate effect on antitumor activity and CRS toxicity, MDA-MB-231 tumors. It is filed as in vivo, NSG mice. On the procedure: To study the effect of high dietary folate (FIG. 63A, FIG. 63B, FIG. 63C, FIG. 63D), two sets of NSG mice were placed on either a FA-replete diet (4 mg/kg, Envigo, Indianapolis, Ind.) or a FA-deficient diet (TestDiet, St. Louis, Mo.) upon arrival. On day 0, both sets of the mice received ˜10 million of the same “clinical facsimile” CAR-T cells followed by no EC17 or EC17 SIW at 500 nmol/kg starting on day 3. On the first day of EC17 administration, MDA-MB-231 tumors size averaged around ˜549±184 mm^3 (280-918 mm3) in FA-replete mice, and ˜559±165 mm^3 (356-961 mm^3) in FA-deficient mice.
Previously, it was shown that administration of FA or a FA ligand helped reduce the severity of CRS in MDA-MB-231 tumor-bearing mice. To test the long-term effect of dietary folate, mice were maintained on defined diets for ˜73 days and used when their tumors reached ˜549±184 mm3 (280-918 mm^3) in FA-replete mice, and ˜559±165 mm^3 (356-961 mm^3) in FA-deficient mice (FIG. 63A, FIG. 63B, FIG. 63C, FIG. 63D).

Where [3] appears, read: FA-deficient diet, each subsequent EC17 dose.
Setting [4] is: FA-replete mice, CAR-T cells plus EC17.

As for `NC1=NC2N=CC(CNc3ccc(C(=O)N[C@@H](CCC(=O)NCCNC(=S)Nc4ccc(-c5c6ccc(=O)cc-6oc6cc(O)ccc56)c(C(=O)O)c4)C(=O)O)cc3)=NC2C(=O)N1` (stereo partly drawn) [EC17, FA-(g)-ethylenediamine-FITC], in the data set with MDA-MB-231 tumors [1], the “cytokine levels (IL2, IFN-γ, IL-10) in plasma” value is on record as “all increased”. In addition, in the data set with MDA-MB-231 tumors [2] (setting [3]), the CRS grade is given as 2-3 and the body weight loss was not above 11.4%. In the data set with MDA-MB-231 tumors [2] (FA-deficient mice, CAR-T cells plus EC17), the cures is listed as 5/5. Besides, the “symptoms of CRS” value in the data set with MDA-MB-231 tumors [2] (FA-replete diet, eight weekly EC17 doses of 500 nmol/kg) is recorded as “did not show symptoms of CRS”. In the data set on MDA-MB-231 tumors [2] (setting [4]), the complete responses is reported as 2/5, the cures was 2/5 and the partial response is 1/5. Moreover, the “CRS or body weight loss after first full dose” value with MDA-MB-231 tumors [2] (~10 million clinical facsimile E2-CAR-T cells, EC17 500 nmol/kg, either diet) is on record as “did not cause any CRS or body weight loss”.
